The results in this text go back to patent US10100058B2, “Fused heterocyclic compounds as CaM kinase inhibitors” (Gilead Sciences, Inc., priority 2016, dated 2018).

In the experiment the target is recombinant CaMKIIδ (Homo sapiens (Human), UniProt Q13557). The experiment can be described thus: CaMKIIδ biochemical assay (HTRF). The conditions noted are these: 10 pM CaMKIIδ, 110 nM calmodulin, 12 μM ATP, 1 hour; read-out: CAMKIID-HTRF-384V2 (IC50 - nM). How it is done:
CaMKIIδ Biochemical Assay
The biochemical activity of recombinant CaMKIIδ was measured by monitoring the phosphorylation of a target peptide using Homogenous Time Resolved Fluorescence (HTRF) technology from CisBio Bioassays.
For orientation: In TR-FRET formats the signal depends on donor and acceptor labels being close together.

For `N[C@H]1C[C@@H]2CCC[C@H]1N2C(=O)c1ccnc(-c2cnn3ccc(-c4ccccc4)nc23)c1` [Example 88, ((1S,5R,6S)-6-amino-8-azabicyclo[3.2.1]octan-8-yl)(2-(5-phenylpyrazolo[1,5-a]pyrimidin-3-yl)pyridin-4-yl)methanone], the IC50 – broadly, the concentration that gives 50% inhibition – was determined as 50.3 nM. Regarding `CCN(CC)[C@@H](C)CNC(=O)c1cc(-c2cnn3ccc(-c4ccns4)nc23)nc(N2CC[C@H]2C(=O)NC)c1` [Example 307, N—((S)-2-(diethylamino)propyl)-2-(5-(isothiazol-5-yl)pyrazolo[1,5-a]pyrimidin-3-yl)-6-((S)-2-(methylcarbamoyl)azetidin-1-yl)isonicotinamide], the IC50 came out at 0.27 nM. Take `CCN(CC)[C@@H](C)CNC(=O)c1cc(-c2cnn3ccc(-c4cccs4)nc23)nc(N2CCC(OC)CC2)c1` [Example 247, (S)—N-(2-(diethylamino)propyl)-2-(4-methoxypiperidin-1-yl)-6-(5-(thiophen-2-yl)pyrazolo[1,5-a]pyrimidin-3-yl)isonicotinamide]: the IC50 is 0.46 nM. The same measure for `CCN(CC)[C@@H](C)CNC(=O)c1cc(N[C@H]2CCOC2)nc(-c2cnn3ccc(-c4cccs4)nc23)c1` [Example 203, N—((S)-2-(diethylamino)propyl)-2-(((S)-tetrahydrofuran-3-yl)amino)-6-(5-(thiophen-2-yl)pyrazolo[1,5-a]pyrimidin-3-yl)isonicotinamide]: 0.18 nM; for `CCN(CC)[C@@H](C)CNC(=O)c1cc(-c2cnn3ccc(-c4cccs4)nc23)nc(N2CC(NS(C)(=O)=O)C2)c1` [Example 197, (S)—N-(2-(diethylamino)propyl)-2-(3-(methylsulfonamido)azetidin-1-yl)-6-(5-(thiophen-2-yl)pyrazolo[1,5-a]pyrimidin-3-yl)isonicotinamide]: 0.09 nM; for `CC(C)C(CNC(=O)c1ccnc(-c2cnn3ccc(-c4ccccc4)nc23)c1)NCC1CC1` (stereo not shown) [Example 52, N-(2-((cyclopropylmethyl)amino)-3-methylbutyl)-2-(5-phenylpyrazolo[1,5-a]pyrimidin-3-yl)isonicotinamide]: 4.98 nM. The same measure for `CCN(CC)[C@@H](C)CNC(=O)c1cc(-c2nccs2)nc(-c2cnn3ccc(-c4cccs4)nc23)c1` [Example 338, (S)—N-(2-(diethylamino)propyl)-2-(thiazol-2-yl)-6-(5-(thiophen-2-yl)pyrazolo[1,5-a]pyrimidin-3-yl)isonicotinamide]: 0.86 nM; for `CCN[C@H](C)CNC(=O)c1ccnc(-c2cnn3ccc(-c4ccccc4)nc23)c1` [Example 74, (R)—N-(2-(ethylamino)propyl)-2-(5-phenylpyrazolo[1,5-a]pyrimidin-3-yl)isonicotinamide]: 34.2 nM. With `CCN(CCN)C(=O)c1ccnc(-c2cnn3ccc(-c4ccccc4)nc23)c1` [Example 65, N-(2-aminoethyl)-N-ethyl-2-(5-phenylpyrazolo[1,5-a]pyrimidin-3-yl)isonicotinamide], the IC50 turned out to be 12.6 nM. The same measure for `CCN(CC)[C@@H](C)CNC(=O)c1cc(NC(=O)OC(C)C)nc(-c2cnn3ccc(-c4cccs4)nc23)c1` [Example 187, (S)-isopropyl (4-((2-(diethylamino)propyl)carbamoyl)-6-(5-(thiophen-2-yl)pyrazolo[1,5-a]pyrimidin-3-yl)pyridin-2-yl)carbamate]: 0.27 nM.

As to `CCN(CC)[C@@H](C)CNC(=O)c1cc(-c2cnn3ccc(-c4cccs4)nc23)nc(N2CC(NS(=O)(=O)CC)C2)c1` [Example 182, (S)—N-(2-(diethylamino)propyl)-2-(3-(ethylsulfonamido)azetidin-1-yl)-6-(5-(thiophen-2-yl)pyrazolo[1,5-a]pyrimidin-3-yl)isonicotinamide], the 50% inhibitory concentration (IC50) was found to be 0.16 nM. The same measure for `CCN(CC)[C@@H](C)CNC(=O)c1cc(-c2cnn3ccc(-c4cccs4)nc23)nc(N2CCC[C@H]2CO)c1` [Example 271, N—((S)-2-(diethylamino)propyl)-2-((S)-2-(hydroxymethyl)pyrrolidin-1-yl)-6-(5-(thiophen-2-yl)pyrazolo[1,5-a]pyrimidin-3-yl)isonicotinamide]: 0.31 nM. The same measure for `C[C@@H](CNC(=O)c1ccnc(-c2cnn3ccc(-c4cccs4)nc23)c1)NCCF` [Example 24, (S)—N-(2-((2-fluoroethyl)amino)propyl)-2-(5-(thiophen-2-yl)pyrazolo[1,5-a]pyrimidin-3-yl)isonicotinamide]: 7.88 nM; for `C[C@H](N)CNC(=O)c1ccnc(-c2cnn3ccc(-c4cccs4)nc23)c1` [Example 22, (S)—N-(2-aminopropyl)-2-(5-(thiophen-2-yl)pyrazolo[1,5-a]pyrimidin-3-yl)isonicotinamide]: 13.9 nM. The same measure for `CN(C)c1cc(C(=O)N2CC[C@H](N)C2)cc(-c2cnn3ccc(-c4ccccc4)nc23)n1` [Example 125, (S)-(3-aminopyrrolidin-1-yl)(2-(dimethylamino)-6-(5-phenylpyrazolo[1,5-a]pyrimidin-3-yl)pyridin-4-yl)methanone]: 267 nM. Turning to `CCN(CC)[C@@H](C)CNC(=O)c1cc(-c2cnn3ccc(-c4cccs4)nc23)nc(N2CC(C(F)(F)F)C2)c1` [Example 147, (S)—N-(2-(diethylamino)propyl)-2-(5-(thiophen-2-yl)pyrazolo[1,5-a]pyrimidin-3-yl)-6-(3-(trifluoromethyl)azetidin-1-yl)isonicotinamide], the IC50 is 0.34 nM.

On to `CC[C@H](CNC(=O)c1cc(-c2cnn3ccc(-c4cccs4)nc23)nc(N2CC[C@H]2C(=O)NC)c1)N(CC)CC` (single isomer, unassigned) [Example 356B], for which the IC50 was found to be 3.04 nM. Take `CC(C)N[C@@H](C)CNC(=O)c1ccnc(-c2cnn3ccc(-c4cccs4)nc23)c1` [Example 32, (S)—N-(2-(isopropylamino)propyl)-2-(5-(thiophen-2-yl)pyrazolo[1,5-a]pyrimidin-3-yl)isonicotinamide]: the IC50 is 18 nM. The same measure for `CCN(CC)[C@@H](C)CNC(=O)c1cc(-c2cnn(CCC#N)c2)nc(-c2cnn3ccc(-c4cccs4)nc23)c1` [Example 341, (S)-2-(1-(2-cyanoethyl)-1H-pyrazol-4-yl)-N-(2-(diethylamino)propyl)-6-(5-(thiophen-2-yl)pyrazolo[1,5-a]pyrimidin-3-yl)isonicotinamide]: 0.15 nM.

Turning to `CN(C)c1cc(C(=O)N2CCCC[C@@H]2CN)cc(-c2cnn3ccc(-c4cccs4)nc23)n1` [Example 106, (R)-(2-(aminomethyl)piperidin-1-yl)(2-(dimethylamino)-6-(5-(thiophen-2-yl)pyrazolo[1,5-a]pyrimidin-3-yl)pyridin-4-yl)methanone], the IC50 is 1.59 nM. The same measure for `CCN(CC)[C@@H](C)CNC(=O)c1cc(-c2cnn3ccc(-c4cccs4)nc23)nc(-n2cncn2)c1` [Example 252, (S)—N-(2-(diethylamino)propyl)-2-(5-(thiophen-2-yl)pyrazolo[1,5-a]pyrimidin-3-yl)-6-(1H-1,2,4-triazol-1-yl)isonicotinamide]: 1.87 nM; for `C[C@@H](CNC(=O)c1ccnc(-c2cnn3ccc(-c4cccs4)nc23)c1)NCC(F)F` [Example 27, (S)—N-(2-((2,2-difluoroethyl)amino)propyl)-2-(5-(thiophen-2-yl)pyrazolo[1,5-a]pyrimidin-3-yl)isonicotinamide]: 18.4 nM.
